Assay results: patent publication US8710064B2, “2-aryl-4-quinazolinones and their pharmaceutical compositions” (China Medical University, priority 2011, dated 2014)
Where two headings read alike, the source gives them in different places.

What was measured:
M21 = test: trypan blue exclusion assay, M21 cells; type: cell-based; conditions: Homo sapiens
Experimental: M21 cell line (human malignant melanoma) was provided by Dr. Feng-Yao Tang (China Medical University, Taiwan). Cells were grown in monolayer culture in RPMI-1640 medium, Eagle's minimum essential medium or Dulbecco's modified Eagles medium (Invitrogen Corporation, Grand Island, N.Y., USA) containing 10% fetal bovine serum (FBS; HyClone, Logan, Utah, USA), 100 U/ml penicillin and 100 μg/ml streptomycin (Gibco BRL, Rockville, Md., USA).
Cell viability was also determined by trypan-blue exclusion assay. Cells were seeded in 6-well plates (2×10^4/well) for trypan blue exclusion assay, and incubated for 24 hours at 37° C. Culture medium containing test compound or DMSO (0.006%) was added to each well, and cells were incubated at 37° C. At indicated time points (0, 24, 48, 72 and 96 hr), cells were suspended with 0.05% trypsin-EDTA, and stained with trypan-blue dye (0.4%) (Sigma). The cell viability was evaluated by the percentage of death relative to the total cell, and cell growth curve was determined by number of live cells relative to the total number of cells.
The anti-proliferation effects of Compounds 17-31 on M21, CH27, H460, Hep3B and HSC-3 cells were evaluated by the trypan blue exclusion assay.

[1] = tested on: U87 human glioma cell lines; test: MTS cell viability assay, U87 glioma cells; type: cell-based; conditions: 48 hours, mean±SEM, n=3
Experimental: The human glioma cell lines U87, U251, T98G, U373, and rat glioma cell line RT2 provided by Dr. Michael Hsiao (Genomics Research Center, Academia Sinica, Taiwan) were cultured in Dulbecco's Modified Eagle medium (DMEM) (Caisson) supplemented with 10% fetal bovine serum (FBS) (Sigma-Aldrich), 2 mM L-glutamine (Caisson), 100 U/ml penicillin, and 100 μg/ml streptomycin (Caisson). The rat glioma C6 cell line provided by Dr. Shun-Fen Tzeng (National Cheng Kung University, Taiwan) was cultured in DMEM/F12 (Caisson) supplemented with 10% fetal bovine serum, 2 mM L-glutamine, 100 U/ml penicillin, and 100 μg/ml streptomycin. The human normal glia cell line SVGP12, kindly provided by Dr. Michael Hsiao, was cultured in Minimum Essential Medium (MEM) (Invitrogen) supplemented with 10% fetal bovine serum, 2 mM L-glutamine, 100 U/ml penicillin, and […]. Primary glia cells were prepared by surgery. Cerebral cortices without meninges were dissected from postnatal (P0-P2) Sprague-Dawley (SD, NCKU Laboratory Animal Center) rats and dissociated in 0.05% trypsin-EDTA (Biowest) at 37° C. for 10 min. Culture medium was added and pipetted for several times, and supernatant was removed after a centrifugation at 1,000 rpm for 5 minutes. […]
Cell proliferation was determined by MTS (tetrazolium compound, 3-(4,5-dimethylthiazol-2-yl)-5-(3-carboxymethoxyphenyl)-2-(4-sulfophenyl)-2H-tetrazolium) assay (Promega). […] The absorbance of soluble formazan was measured at 490 nm with microplate reader (Molecular device). The cell viability was determined by the percentage of the absorption relative to untreated control. […]
To investigate the effect of 2-aryl-4-quinazolinone in accordance with the present invention on cell proliferation, glioma cell lines were treated with MJ-66, MJ-68, or MJ-78. […] The cell viability of each group was analyzed by MTS assay (mean±SEM, n=3).

[2] = tested on: U87 human glioma xenograft; test: in vivo xenograft animal model; parameters: species or system nude mice; conditions: 1.36 microgram/kg intra-tumor every 2 days for 10 times, after 40 days
Experimental: For tumorigenesis, U87 glioma cells (1×10^6 cells per 100 μl PBS) were inoculated subcutaneously into the right flank of 8-to-10-week-old male nude mice (BALB/cAnN-Foxnlnu/CrlNarl mice, National Laboratory Animal Center, Taiwan). Tumor growth was measured every three days. Tumor volume was calculated by volume (mm^3)=[…] (Zhou, Y. H., Wu, X., Tan, F., Shi, Y. X., Glass, T., Liu, T. J., Wathen, K., Hess, K. R., Gumin, J, Lang, F., et al. (2005). PAX6 suppresses growth of human glioblastoma cells. J Neurooncol 71, 223-229). When the tumors reached a mean volume of 50 to 70 mm^3, MJ-66 (1.36 microgram/kg in saline) or vehicle (DMSO or saline) was injected intratumor once per two days during 20 days.
Since MJ-66 was able to effectively cause glioma to undergo mitotic catastrophe in vitro, whether MJ-66 could inhibit tumor growth in vivo was further examined by U87 human glioma xenograft animal model. Approximately 1×10^6 U87 glioma cells were injected subcutaneously into the nude mice and when tumors size reached 50 to 200 mm^3 in volume, MJ-66 (1.36 microgram/kg in saline) or vehicle (DMSO or saline denoted respectively as DMSO and Control) was administered by intra-tumor every 2 days for 10 times and tumor volume was measured for 50 days. Tumor growth was observed every three days.

With O=c1[nH]c(-c2cccc3ccccc23)nc2ccc(N3CCCC3)cc12 [Compound 23, 6-(Pyrrolidin-1-yl)-2-(naphthalen-1-yl)quinazolin-4-one] the IC50 (M21; M21, in vitro, read-out: IC50, growth of human malignant melanoma cells) was roughly 33 nM, the IC50 (M21; M21 skin cancer, trypan blue exclusion assay, read-out: IC50 M21) was 33 nM and the IC50 [1] was 54 ± 10 nM. For the same compound, the tumor growth [2] was “significantly inhibited” and the tumor volume ([2]; N=8, p<0.01) was 435.1 mm^3.
